Assay results published in ChEMBL document CHEMBL1157604 (J Med Chem, 2010).
Calls of active or inactive are those of the source. No cut-off for these calls is given here.

Assays:
[1] = target: Neuronal acetylcholine receptor; alpha4/beta2 (Homo sapiens) (UniProt P17787+P43681); assay: Intrinsic activity at human alpha4beta2 nAChR receptor expressed in human SH-SY5Y cells assessed as 86Rb+ efflux at 5 to 100 uM by liquid scintillation counting; assay type: cell-based
[2] = target: Acetylcholine receptor; alpha1/beta1/delta/gamma (Homo sapiens) (UniProt P02708+P07510+P11230+Q07001); assay: Intrinsic activity at alpha-1-beta-1-gamma-delta nAChR receptor expressed in human TE671/RD cells assessed as 86Rb+ efflux at 5 to 100 uM by liquid scintillation counting; assay type: cell-based
Mus musculus [3] = species on record: Mus musculus; assay: Effect on body temperature in ICR mouse assessed as inhibition of nicotine-induced hypothermic response; assay type: functional
[4] = target: Neuronal acetylcholine receptor; alpha3/beta4 (Homo sapiens) (UniProt P30926+P32297); assay: Intrinsic activity at alpha3beta4 nAChR receptor in human SH-SY5Y cells assessed as 86Rb+ efflux at 5 to 100 uM by liquid scintillation counting; assay type: cell-based
Mus musculus [5] = species on record: Mus musculus; assay: Antinociceptive activity in ICR mouse D'Amour and Smith model of pain assessed as inhibition of nicotine-induced response by tail-flick test; assay type: functional
[6] = target: Neuronal acetylcholine receptor; alpha4/beta4 (Homo sapiens) (UniProt P30926+P43681); assay: Intrinsic activity at human alpha4beta4 nAChR receptor expressed in human SH-SY5Y cells assessed as 86Rb+ efflux at 5 to 100 uM by liquid scintillation counting; assay type: cell-based
[7] = target: Sodium-dependent noradrenaline transporter (Homo sapiens, UniProt P23975); assay: Inhibition of [3H]norepinephrine uptake at human NET expressed in HEK293 cells; assay type: cell-based
Sodium-dependent noradrenaline transporter, sequence (P23975 whole entry): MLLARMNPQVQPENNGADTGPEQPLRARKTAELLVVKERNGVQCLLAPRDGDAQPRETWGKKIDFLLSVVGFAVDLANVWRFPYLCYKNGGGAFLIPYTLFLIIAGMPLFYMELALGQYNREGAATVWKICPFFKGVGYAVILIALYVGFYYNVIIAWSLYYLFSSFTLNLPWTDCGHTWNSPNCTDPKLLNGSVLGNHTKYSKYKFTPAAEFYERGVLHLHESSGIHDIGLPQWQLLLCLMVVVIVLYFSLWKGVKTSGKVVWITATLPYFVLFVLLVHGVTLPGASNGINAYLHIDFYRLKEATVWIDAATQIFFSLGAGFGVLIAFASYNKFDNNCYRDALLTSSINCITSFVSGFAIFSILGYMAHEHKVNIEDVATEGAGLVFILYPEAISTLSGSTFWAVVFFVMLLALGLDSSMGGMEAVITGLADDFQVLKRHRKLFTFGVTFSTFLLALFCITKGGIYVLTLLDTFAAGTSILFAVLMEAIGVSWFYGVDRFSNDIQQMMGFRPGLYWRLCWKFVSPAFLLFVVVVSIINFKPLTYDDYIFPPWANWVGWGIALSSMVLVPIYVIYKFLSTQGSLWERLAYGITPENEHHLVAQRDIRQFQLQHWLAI

Mus musculus [8] = species on record: Mus musculus; assay: Effect on behavioral activity in ICR mouse assessed as inhibition of nicotine-induced locomotory response by locomotor assay; assay type: functional
Mus musculus [9] = species on record: Mus musculus; assay: Antinociceptive activity in ICR mouse assessed as inhibition of nicotine-induced response by hotplate test; assay type: functional
[10] = target: Sodium-dependent dopamine transporter (Homo sapiens, UniProt Q01959); assay: Inhibition of [3H]dopamine uptake at human DAT expressed in HEK293 cells; assay type: cell-based
Sodium-dependent dopamine transporter, sequence (Q01959 whole entry): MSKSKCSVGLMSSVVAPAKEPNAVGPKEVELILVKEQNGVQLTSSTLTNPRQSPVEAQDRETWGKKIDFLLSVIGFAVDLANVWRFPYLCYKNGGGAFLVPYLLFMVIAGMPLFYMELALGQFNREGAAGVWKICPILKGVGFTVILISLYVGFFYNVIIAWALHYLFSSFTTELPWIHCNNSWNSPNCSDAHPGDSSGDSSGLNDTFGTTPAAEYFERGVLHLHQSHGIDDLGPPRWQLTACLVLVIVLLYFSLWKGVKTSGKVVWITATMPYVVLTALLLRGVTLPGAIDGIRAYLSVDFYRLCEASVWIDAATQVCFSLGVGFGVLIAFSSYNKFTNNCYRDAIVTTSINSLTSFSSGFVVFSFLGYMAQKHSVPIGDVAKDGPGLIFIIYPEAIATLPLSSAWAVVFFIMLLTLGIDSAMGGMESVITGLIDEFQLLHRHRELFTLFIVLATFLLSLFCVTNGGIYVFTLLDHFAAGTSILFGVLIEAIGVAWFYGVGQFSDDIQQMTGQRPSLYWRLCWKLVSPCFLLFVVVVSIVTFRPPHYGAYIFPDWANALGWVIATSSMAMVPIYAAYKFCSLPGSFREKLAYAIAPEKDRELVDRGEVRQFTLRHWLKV

[11] = target: Sodium-dependent serotonin transporter (Homo sapiens, UniProt P31645); assay: Inhibition of [3H]serotonin uptake at human SERT expressed in HEK293 cells; assay type: cell-based
Sodium-dependent serotonin transporter, sequence (P31645 whole entry): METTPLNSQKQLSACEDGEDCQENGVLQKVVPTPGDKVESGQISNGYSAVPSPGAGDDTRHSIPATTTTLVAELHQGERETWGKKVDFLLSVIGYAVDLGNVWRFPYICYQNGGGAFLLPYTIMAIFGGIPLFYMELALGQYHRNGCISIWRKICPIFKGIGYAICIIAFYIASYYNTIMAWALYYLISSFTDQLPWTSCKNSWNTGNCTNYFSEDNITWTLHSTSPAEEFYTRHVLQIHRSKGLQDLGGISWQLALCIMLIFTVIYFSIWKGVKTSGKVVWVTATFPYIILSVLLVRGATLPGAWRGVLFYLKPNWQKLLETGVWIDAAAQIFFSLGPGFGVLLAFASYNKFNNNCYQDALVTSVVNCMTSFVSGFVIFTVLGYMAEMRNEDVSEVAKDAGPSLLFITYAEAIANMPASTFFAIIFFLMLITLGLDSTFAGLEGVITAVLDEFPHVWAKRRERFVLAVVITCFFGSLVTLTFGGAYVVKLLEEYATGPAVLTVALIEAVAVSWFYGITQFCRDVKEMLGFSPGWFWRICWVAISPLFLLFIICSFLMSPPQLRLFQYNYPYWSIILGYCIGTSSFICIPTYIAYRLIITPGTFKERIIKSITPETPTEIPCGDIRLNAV

Row | SMILES | Activity [1] | Activity [2] | AD50 (Mus musculus [3]) | Activity [4] | AD50 (Mus musculus [5]) | Activity [6] | IC50 [7] | AD50 (Mus musculus [8]) | AD50 (Mus musculus [9]) | IC50 [10] | IC50 [11]
1 | CC(C(=O)c1cccc(Cl)c1)N(C)C (stereo unspecified) | inactive | inactive | inactive | inactive | 5.2 mg/kg | inactive | 1520 nM | inactive | inactive | 1750 nM | –
2 | CC(NC(C)(C)C)C(=O)c1cccc(Cl)c1 (stereo unspecified) [BUPROPION] | inactive | inactive | 9.2 mg/kg | inactive | 1.2 mg/kg | inactive | – | – | 15 mg/kg | – | –
3 | Cc1cccc(C(=O)C(C)NC(C)(C)C)c1 (stereo unspecified) | inactive | inactive | 7.8 mg/kg | inactive | 0.05 mg/kg | inactive | 6200 nM | 4.3 mg/kg | 6.8 mg/kg | – | –
4 | Cc1ccc(C(=O)C(C)NC(C)(C)C)cc1Cl (stereo unspecified) | inactive | inactive | 10 mg/kg | inactive | 0.2 mg/kg | inactive | 2040 nM | 11 mg/kg | 7.2 mg/kg | 410 nM | –
5 | CC(NC(C)(C)C)C(=O)c1ccc(F)c(F)c1 (stereo unspecified) | inactive | inactive | inactive | inactive | 0.05 mg/kg | inactive | 6480 nM | inactive | inactive | 7980 nM | –
6 | CC(NC1CCCC1)C(=O)c1cccc([N+](=O)[O-])c1 (stereo unspecified) | inactive | inactive | inactive | inactive | inactive | inactive | – | inactive | inactive | – | –
7 | CC(NC1CCCC1)C(=O)c1cccc(Br)c1 (stereo unspecified) | inactive | inactive | inactive | inactive | inactive | inactive | 2530 nM | inactive | inactive | 845 nM | –
8 | CC(NC1CCCC1)C(=O)c1cccc(Cl)c1 (stereo unspecified) | inactive | inactive | inactive | inactive | 0.014 mg/kg | inactive | – | inactive | inactive | – | –
9 | CC(NC(C)(C)C)C(=O)c1ccc(Cl)cc1 (stereo unspecified) | inactive | inactive | 32 mg/kg | inactive | 0.43 mg/kg | inactive | 2070 nM | 31 mg/kg | inactive | 1090 nM | 9800 nM
10 | CC(CNC(C)(C)C)C(=O)c1cccc(Cl)c1 (stereo unspecified) | inactive | inactive | 16 mg/kg | inactive | 10.5 mg/kg | inactive | – | inactive | inactive | – | –
11 | CC(NC(C)(C)C)C(=O)c1cccc(Br)c1 (stereo unspecified) | inactive | inactive | 11.5 mg/kg | inactive | 0.12 mg/kg | inactive | 5600 nM | 27.1 mg/kg | 14.9 mg/kg | 511 nM | –
12 | Cc1cc(C(=O)C(C)NC(C)(C)C)ccc1Br (stereo unspecified) | inactive | inactive | inactive | inactive | 0.015 mg/kg | inactive | 7250 nM | inactive | inactive | – | –
13 | CCCC(NC(C)(C)C)C(=O)c1ccc(Cl)c(Cl)c1 (stereo unspecified) | inactive | inactive | 17.5 mg/kg | inactive | 0.13 mg/kg | inactive | – | inactive | 15 mg/kg | 31 nM | 2300 nM
14 | CC(NC(C)(C)C)C(=O)c1cccc(F)c1 (stereo unspecified) | inactive | inactive | inactive | inactive | inactive | inactive | 6500 nM | inactive | inactive | 2320 nM | –
15 | Cc1cccc(C(=O)C(C)NC2CCCC2)c1 (stereo unspecified) | inactive | inactive | inactive | inactive | inactive | inactive | 8700 nM | inactive | inactive | 842 nM | –
16 | CC(NC(C)(C)C)C(=O)c1cccs1 (stereo unspecified) | inactive | inactive | inactive | inactive | 0.077 mg/kg | inactive | – | inactive | inactive | – | –
17 | CC(NC(C)(C)C)C(=O)c1cc(Cl)cc(Cl)c1 (stereo unspecified) | inactive | inactive | inactive | inactive | 0.028 mg/kg | inactive | 14000 nM | inactive | 4.3 mg/kg | – | –
18 | CCC(NC(C)(C)C)C(=O)c1cccc(Cl)c1 (stereo unspecified) | inactive | inactive | inactive | inactive | 0.5 mg/kg | inactive | – | 11.7 mg/kg | inactive | 209 nM | –
19 | CC(C(=O)c1cccc([N+](=O)[O-])c1)N1CCCCC1 (stereo unspecified) | inactive | inactive | inactive | inactive | inactive | inactive | – | inactive | inactive | 10000 nM | –
20 | CC(NC1CCCC1)C(=O)c1cccc(F)c1 (stereo unspecified) | inactive | inactive | inactive | inactive | inactive | inactive | 2850 nM | inactive | inactive | 693 nM | –
21 | CC(C(=O)c1cccc(Cl)c1)N(C)C(C)(C)C (stereo unspecified) | inactive | inactive | inactive | inactive | 0.46 mg/kg | inactive | 1570 nM | inactive | 8.7 mg/kg | 6000 nM | –
22 | Cc1ccc(C(=O)C(C)NC(C)(C)C)cc1 (stereo unspecified) | inactive | inactive | 8.8 mg/kg | inactive | 0.09 mg/kg | inactive | – | 11.8 mg/kg | 7.75 mg/kg | 1950 nM | –
23 | CC(C(=O)c1cccc(Cl)c1)N1CCCCC1 (stereo unspecified) | inactive | inactive | inactive | inactive | 0.05 mg/kg | inactive | 2520 nM | inactive | inactive | 852 nM | –
24 | COc1cccc(C(=O)C(C)NC(C)(C)C)c1 (stereo unspecified) | inactive | inactive | inactive | inactive | 1.6 mg/kg | inactive | – | inactive | inactive | 3620 nM | –
25 | CCCC(NC(C)(C)C)C(=O)c1cccc(Cl)c1 (stereo unspecified) | inactive | inactive | inactive | inactive | 10 mg/kg | inactive | 370 nM | inactive | inactive | 56 nM | –
26 | CC(NC(C)(C)C)C(=O)c1cccc([N+](=O)[O-])c1 (stereo unspecified) | inactive | inactive | inactive | inactive | inactive | inactive | – | inactive | inactive | – | –
